PMC10817531, “Chlorinated Enyne Fatty Acid Amides from a Marine Cyanobacterium: Discovery of Taveuniamides L-M and Pharmacological Characterization of Taveuniamide F as a GPCR Antagonist with CNR1 Selectivity” (Marine Drugs, 2023)

Columns and labels:
Assay in all cases: PathHunter β-arrestin GpcrMAX assay
Format in all cases: cell-based
[1] = molecular target: AGTRL1 (Homo sapiens, UniProt P35414)
Summary of the method: (§1)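 Agonist- and antagonist-mode screening of taveuniamide F (20 µM) using PathHunter β-arrestin EFC technology.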

[2] = molecular target: AVPR1A (Homo sapiens, UniProt P37288)
Summary of the method: as §1

[3] = molecular target: C3AR1 (Homo sapiens, UniProt Q16581)
Summary of the method: as §1

[4] = molecular target: CALCR (Homo sapiens, UniProt P30988)
Summary of the method: as §1

[5] = molecular target: CALCR-RAMP2 (Homo sapiens, UniProt O60895+P30988)
Summary of the method: as §1

[6] = molecular target: T1, CCR1 (Homo sapiens, UniProt P32246)
T1 construct: purchased DiscoveRx (Eurofins) gpcrMAX PathHunter β-arrestin panel
Summary of the method: as §1

[7] = molecular target: T2, CCR5 (Homo sapiens, UniProt P51681)
T2 construct: purchased DiscoveRx (Eurofins) gpcrMAX PathHunter β-arrestin panel
Summary of the method: as §1

[8] = molecular target: T3, CCR6 (Homo sapiens, UniProt P51684)
T3 construct: purchased DiscoveRx (Eurofins) gpcrMAX PathHunter β-arrestin panel
Summary of the method: as §1

[9] = molecular target: T4, CHRM1 (Homo sapiens, UniProt P11229)
T4 construct: purchased DiscoveRx (Eurofins) gpcrMAX PathHunter β-arrestin panel
Summary of the method: as §1

[10] = molecular target: T5, CHRM2 (Homo sapiens, UniProt P08172)
T5 construct: purchased DiscoveRx (Eurofins) gpcrMAX PathHunter β-arrestin panel
Summary of the method: as §1

[11] = molecular target: T6, CMKLR1 (Homo sapiens, UniProt Q99788)
T6 construct: purchased DiscoveRx (Eurofins) gpcrMAX PathHunter β-arrestin panel
Summary of the method: as §1

[12] = molecular target: T7, CXCR1 (Homo sapiens, UniProt P25024)
T7 construct: purchased DiscoveRx (Eurofins) gpcrMAX PathHunter β-arrestin panel
Summary of the method: as §1

[13] = molecular target: T8, CXCR4 (Homo sapiens, UniProt P61073)
T8 construct: purchased DiscoveRx (Eurofins) gpcrMAX PathHunter β-arrestin panel
Summary of the method: as §1

[14] = molecular target: T9, CXCR7 (Homo sapiens, UniProt P25106)
T9 construct: purchased DiscoveRx (Eurofins) gpcrMAX PathHunter β-arrestin panel
Summary of the method: as §1

[15] = molecular target: T10, DRD3 (Homo sapiens, UniProt P35462)
T10 construct: purchased DiscoveRx (Eurofins) gpcrMAX PathHunter β-arrestin panel
Summary of the method: as §1

[16] = molecular target: T11, DRD4 (Homo sapiens, UniProt P21917)
T11 construct: purchased DiscoveRx (Eurofins) gpcrMAX PathHunter β-arrestin panel
Summary of the method: as §1

[17] = molecular target: T12, DRD5 (Homo sapiens, UniProt P21918)
T12 construct: purchased DiscoveRx (Eurofins) gpcrMAX PathHunter β-arrestin panel
Summary of the method: as §1

[18] = molecular target: T13, EBI2 (Homo sapiens, UniProt P32249)
T13 construct: purchased DiscoveRx (Eurofins) gpcrMAX PathHunter β-arrestin panel
Summary of the method: as §1

[19] = molecular target: T14, EDG6 (Homo sapiens, UniProt O95977)
T14 construct: purchased DiscoveRx (Eurofins) gpcrMAX PathHunter β-arrestin panel
Summary of the method: as §1

[20] = molecular target: T15, EDNRA (Homo sapiens, UniProt P25101)
T15 construct: purchased DiscoveRx (Eurofins) gpcrMAX PathHunter β-arrestin panel
Summary of the method: as §1

[21] = molecular target: T16, FSHR (Homo sapiens, UniProt P23945)
T16 construct: purchased DiscoveRx (Eurofins) gpcrMAX PathHunter β-arrestin panel
Summary of the method: as §1

[22] = molecular target: T17, GALR2 (Homo sapiens, UniProt O43603)
T17 construct: purchased DiscoveRx (Eurofins) gpcrMAX PathHunter β-arrestin panel
Summary of the method: as §1

[23] = molecular target: T18, GLP2R (Homo sapiens, UniProt O95838)
T18 construct: purchased DiscoveRx (Eurofins) gpcrMAX PathHunter β-arrestin panel
Summary of the method: as §1

[24] = molecular target: T19, HRH4 (Homo sapiens, UniProt Q9H3N8)
T19 construct: purchased DiscoveRx (Eurofins) gpcrMAX PathHunter β-arrestin panel
Summary of the method: as §1

[25] = molecular target: T20, NMBR (Homo sapiens, UniProt P28336)
T20 construct: purchased DiscoveRx (Eurofins) gpcrMAX PathHunter β-arrestin panel
Summary of the method: as §1

[26] = molecular target: T21, NPBWR1 (Homo sapiens, UniProt P48145)
T21 construct: purchased DiscoveRx (Eurofins) gpcrMAX PathHunter β-arrestin panel
Summary of the method: as §1

[27] = molecular target: T22, NPBWR2 (Homo sapiens, UniProt P48146)
T22 construct: purchased DiscoveRx (Eurofins) gpcrMAX PathHunter β-arrestin panel
Summary of the method: as §1

[28] = molecular target: T23, NPY1R (Homo sapiens, UniProt P25929)
T23 construct: purchased DiscoveRx (Eurofins) gpcrMAX PathHunter β-arrestin panel
Summary of the method: as §1

[29] = molecular target: T24, OPRD1 (Homo sapiens, UniProt P41143)
T24 construct: purchased DiscoveRx (Eurofins) gpcrMAX PathHunter β-arrestin panel
Summary of the method: as §1

[30] = molecular target: T25, OPRK1 (Homo sapiens, UniProt P41145)
T25 construct: purchased DiscoveRx (Eurofins) gpcrMAX PathHunter β-arrestin panel
Summary of the method: as §1

[31] = molecular target: T26, OPRL1 (Homo sapiens, UniProt P41146)
T26 construct: purchased DiscoveRx (Eurofins) gpcrMAX PathHunter β-arrestin panel
Summary of the method: as §1

[32] = molecular target: T27, OPRM1 (Homo sapiens, UniProt P35372)
T27 construct: purchased DiscoveRx (Eurofins) gpcrMAX PathHunter β-arrestin panel
Summary of the method: as §1

[33] = molecular target: T28, OXER1 (Homo sapiens, UniProt Q8TDS5)
T28 construct: purchased DiscoveRx (Eurofins) gpcrMAX PathHunter β-arrestin panel
Summary of the method: as §1

[34] = molecular target: T29, PTAFR (Homo sapiens, UniProt P25105)
T29 construct: purchased DiscoveRx (Eurofins) gpcrMAX PathHunter β-arrestin panel
Summary of the method: as §1

[35] = molecular target: T30, SSTR5 (Homo sapiens, UniProt P35346)
T30 construct: purchased DiscoveRx (Eurofins) gpcrMAX PathHunter β-arrestin panel
Summary of the method: as §1

[36] = molecular target: T31, TACR1 (Homo sapiens, UniProt P25103)
T31 construct: purchased DiscoveRx (Eurofins) gpcrMAX PathHunter β-arrestin panel
Summary of the method: as §1

[37] = molecular target: T32, TBXA2R (Homo sapiens, UniProt P21731)
T32 construct: purchased DiscoveRx (Eurofins) gpcrMAX PathHunter β-arrestin panel
Summary of the method: as §1

[38] = molecular target: T33, UTR2 (Homo sapiens, UniProt Q9UKP6)
T33 construct: purchased DiscoveRx (Eurofins) gpcrMAX PathHunter β-arrestin panel
Summary of the method: as §1

T13 sequence (P32249 whole entry): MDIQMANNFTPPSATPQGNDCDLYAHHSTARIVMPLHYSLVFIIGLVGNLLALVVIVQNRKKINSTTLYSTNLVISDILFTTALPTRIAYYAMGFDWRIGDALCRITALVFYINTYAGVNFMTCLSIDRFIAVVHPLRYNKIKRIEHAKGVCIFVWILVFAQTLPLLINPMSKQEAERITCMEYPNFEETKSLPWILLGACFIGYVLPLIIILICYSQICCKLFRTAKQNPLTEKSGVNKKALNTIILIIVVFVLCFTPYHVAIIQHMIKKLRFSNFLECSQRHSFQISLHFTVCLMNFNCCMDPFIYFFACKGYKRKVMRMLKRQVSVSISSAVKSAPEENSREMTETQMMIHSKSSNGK
T15 sequence (P25101 21-427): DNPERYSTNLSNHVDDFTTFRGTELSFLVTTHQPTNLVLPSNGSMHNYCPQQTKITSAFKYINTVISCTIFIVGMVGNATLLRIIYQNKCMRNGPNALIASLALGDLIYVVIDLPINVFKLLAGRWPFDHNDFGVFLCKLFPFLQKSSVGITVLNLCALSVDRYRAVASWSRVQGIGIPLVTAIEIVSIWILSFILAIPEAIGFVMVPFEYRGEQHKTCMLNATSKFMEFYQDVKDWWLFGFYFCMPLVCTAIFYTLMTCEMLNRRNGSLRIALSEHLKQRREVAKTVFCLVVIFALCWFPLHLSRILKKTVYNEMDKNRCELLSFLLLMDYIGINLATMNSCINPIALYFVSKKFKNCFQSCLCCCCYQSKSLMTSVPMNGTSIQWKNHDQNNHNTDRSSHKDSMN
T33 sequence (Q9UKP6 whole entry): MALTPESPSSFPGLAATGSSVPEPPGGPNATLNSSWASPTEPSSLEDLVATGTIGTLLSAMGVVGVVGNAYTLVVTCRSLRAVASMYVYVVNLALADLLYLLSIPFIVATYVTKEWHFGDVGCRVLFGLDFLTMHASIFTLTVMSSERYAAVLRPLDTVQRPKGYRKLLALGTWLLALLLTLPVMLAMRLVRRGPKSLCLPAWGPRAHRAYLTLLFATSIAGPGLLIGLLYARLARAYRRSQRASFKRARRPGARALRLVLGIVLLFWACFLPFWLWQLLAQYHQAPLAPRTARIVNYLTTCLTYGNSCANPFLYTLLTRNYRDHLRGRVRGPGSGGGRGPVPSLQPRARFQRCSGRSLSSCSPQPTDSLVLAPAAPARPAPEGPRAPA
T9 sequence (P25106 whole entry): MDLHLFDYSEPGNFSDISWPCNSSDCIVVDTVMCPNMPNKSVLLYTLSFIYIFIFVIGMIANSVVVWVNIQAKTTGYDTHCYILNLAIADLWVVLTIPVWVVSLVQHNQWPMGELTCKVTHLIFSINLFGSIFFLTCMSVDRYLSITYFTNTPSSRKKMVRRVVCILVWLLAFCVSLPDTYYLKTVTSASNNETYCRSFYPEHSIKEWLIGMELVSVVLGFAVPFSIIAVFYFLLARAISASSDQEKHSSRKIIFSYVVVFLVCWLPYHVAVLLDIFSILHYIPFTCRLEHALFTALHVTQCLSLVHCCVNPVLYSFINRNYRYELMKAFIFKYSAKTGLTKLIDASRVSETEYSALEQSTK
T31 sequence (P25103 whole entry): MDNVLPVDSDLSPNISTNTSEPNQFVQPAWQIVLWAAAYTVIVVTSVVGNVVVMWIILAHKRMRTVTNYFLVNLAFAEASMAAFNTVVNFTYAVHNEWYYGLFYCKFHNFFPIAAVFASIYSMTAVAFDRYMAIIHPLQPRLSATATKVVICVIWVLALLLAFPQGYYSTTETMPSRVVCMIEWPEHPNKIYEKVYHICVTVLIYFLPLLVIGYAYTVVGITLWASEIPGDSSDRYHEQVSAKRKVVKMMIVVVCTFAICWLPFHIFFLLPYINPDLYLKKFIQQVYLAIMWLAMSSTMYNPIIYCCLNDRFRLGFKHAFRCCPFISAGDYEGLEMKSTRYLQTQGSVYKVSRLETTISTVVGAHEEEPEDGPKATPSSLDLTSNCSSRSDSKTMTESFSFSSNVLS
T12 sequence (P21918 whole entry): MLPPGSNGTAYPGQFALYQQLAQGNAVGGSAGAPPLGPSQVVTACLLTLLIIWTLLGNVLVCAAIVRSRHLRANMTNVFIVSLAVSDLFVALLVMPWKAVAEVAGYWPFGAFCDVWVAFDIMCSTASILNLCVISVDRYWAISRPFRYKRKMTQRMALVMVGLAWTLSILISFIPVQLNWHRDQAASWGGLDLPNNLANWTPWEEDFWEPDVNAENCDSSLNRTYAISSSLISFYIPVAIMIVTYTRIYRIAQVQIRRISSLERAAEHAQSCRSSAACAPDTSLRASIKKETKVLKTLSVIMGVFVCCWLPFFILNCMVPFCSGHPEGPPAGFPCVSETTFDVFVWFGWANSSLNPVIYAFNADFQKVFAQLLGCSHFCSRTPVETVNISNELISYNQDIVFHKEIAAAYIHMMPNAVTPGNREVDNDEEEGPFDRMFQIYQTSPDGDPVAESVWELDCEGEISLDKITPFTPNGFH
T27 sequence (P35372 whole entry): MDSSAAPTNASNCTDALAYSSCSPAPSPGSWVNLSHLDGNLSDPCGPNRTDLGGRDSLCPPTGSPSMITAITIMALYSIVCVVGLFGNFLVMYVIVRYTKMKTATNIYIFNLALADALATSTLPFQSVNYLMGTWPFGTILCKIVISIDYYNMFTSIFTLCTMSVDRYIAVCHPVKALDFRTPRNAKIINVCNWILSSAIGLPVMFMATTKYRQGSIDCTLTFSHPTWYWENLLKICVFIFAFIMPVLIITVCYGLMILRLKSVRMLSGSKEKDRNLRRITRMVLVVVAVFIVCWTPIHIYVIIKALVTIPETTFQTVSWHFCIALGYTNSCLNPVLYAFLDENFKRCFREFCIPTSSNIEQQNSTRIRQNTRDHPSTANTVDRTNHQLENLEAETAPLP
T20 sequence (P28336 whole entry): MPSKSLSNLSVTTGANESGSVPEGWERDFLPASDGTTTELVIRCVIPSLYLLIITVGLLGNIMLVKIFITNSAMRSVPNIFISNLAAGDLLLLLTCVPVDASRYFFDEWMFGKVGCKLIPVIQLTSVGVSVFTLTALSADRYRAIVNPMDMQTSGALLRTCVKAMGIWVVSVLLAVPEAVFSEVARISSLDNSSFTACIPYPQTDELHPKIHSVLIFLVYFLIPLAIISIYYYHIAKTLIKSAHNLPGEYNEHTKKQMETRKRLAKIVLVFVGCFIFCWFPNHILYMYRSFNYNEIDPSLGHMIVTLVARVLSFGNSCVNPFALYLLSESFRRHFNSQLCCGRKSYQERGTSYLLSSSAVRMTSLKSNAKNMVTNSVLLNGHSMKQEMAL
T16 sequence (P23945 18-695): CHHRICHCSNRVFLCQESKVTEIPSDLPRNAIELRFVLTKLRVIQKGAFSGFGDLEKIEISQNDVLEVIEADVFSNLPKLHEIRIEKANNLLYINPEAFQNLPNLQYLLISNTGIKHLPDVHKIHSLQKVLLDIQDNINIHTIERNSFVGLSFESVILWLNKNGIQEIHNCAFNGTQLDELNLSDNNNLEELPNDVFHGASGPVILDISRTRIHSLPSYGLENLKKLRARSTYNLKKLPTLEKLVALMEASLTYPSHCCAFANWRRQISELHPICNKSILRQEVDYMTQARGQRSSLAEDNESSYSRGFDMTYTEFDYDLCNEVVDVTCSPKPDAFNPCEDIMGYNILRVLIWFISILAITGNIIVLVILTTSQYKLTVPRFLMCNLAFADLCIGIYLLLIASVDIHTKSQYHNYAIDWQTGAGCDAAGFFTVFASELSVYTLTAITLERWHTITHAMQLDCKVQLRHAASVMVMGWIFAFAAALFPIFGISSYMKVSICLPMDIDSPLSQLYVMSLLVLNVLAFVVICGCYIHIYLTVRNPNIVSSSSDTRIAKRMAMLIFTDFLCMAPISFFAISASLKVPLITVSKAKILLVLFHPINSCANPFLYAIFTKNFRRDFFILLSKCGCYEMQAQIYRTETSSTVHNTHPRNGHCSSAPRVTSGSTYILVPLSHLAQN
T23 sequence (P25929 whole entry): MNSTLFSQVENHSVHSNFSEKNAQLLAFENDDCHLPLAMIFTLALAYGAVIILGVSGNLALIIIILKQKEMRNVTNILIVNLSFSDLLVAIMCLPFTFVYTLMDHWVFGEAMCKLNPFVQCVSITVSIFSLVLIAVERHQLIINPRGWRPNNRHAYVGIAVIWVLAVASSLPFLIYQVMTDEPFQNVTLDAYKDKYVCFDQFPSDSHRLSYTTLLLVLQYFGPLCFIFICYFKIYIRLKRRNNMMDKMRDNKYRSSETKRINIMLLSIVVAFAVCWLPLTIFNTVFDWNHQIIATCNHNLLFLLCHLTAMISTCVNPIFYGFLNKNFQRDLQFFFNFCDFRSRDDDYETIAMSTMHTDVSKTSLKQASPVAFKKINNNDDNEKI
T28 sequence (Q8TDS5 whole entry): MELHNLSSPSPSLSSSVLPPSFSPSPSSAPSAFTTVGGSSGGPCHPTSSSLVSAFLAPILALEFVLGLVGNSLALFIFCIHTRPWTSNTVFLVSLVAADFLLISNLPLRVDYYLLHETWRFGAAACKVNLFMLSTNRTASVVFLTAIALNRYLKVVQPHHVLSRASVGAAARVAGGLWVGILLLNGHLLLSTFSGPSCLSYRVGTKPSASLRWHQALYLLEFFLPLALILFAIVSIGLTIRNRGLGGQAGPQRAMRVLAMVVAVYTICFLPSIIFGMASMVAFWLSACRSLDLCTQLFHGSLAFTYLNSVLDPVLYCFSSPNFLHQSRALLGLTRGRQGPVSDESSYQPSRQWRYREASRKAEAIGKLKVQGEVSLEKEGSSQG

inhibition at 20 µM [1]: 6.8%
inhibition at 20 µM [2]: 48.5%
inhibition at 20 µM [3]: 10.3%
inhibition at 20 µM [4]: 14.1%
inhibition at 20 µM [5]: 58.6%
inhibition at 20 µM [6]: 65.7%
inhibition at 20 µM [7]: 14.7%
inhibition at 20 µM [8]: 58.2%
inhibition at 20 µM [9]: 21.8%
inhibition at 20 µM [10]: 36.7%
inhibition at 20 µM [11]: 21.4%
inhibition at 20 µM [12]: 15.3%
inhibition at 20 µM [13]: 43.8%
inhibition at 20 µM [14]: 3.6%
inhibition at 20 µM [15]: 9.6%
inhibition at 20 µM [16]: 20.8%
inhibition at 20 µM [17]: 2.7%
inhibition at 20 µM [18]: 18%
inhibition at 20 µM [19]: 19.6%
inhibition at 20 µM [20]: 30.7%
inhibition at 20 µM [21]: 40.5%
inhibition at 20 µM [22]: 23.1%
inhibition at 20 µM [23]: 20.4%
inhibition at 20 µM [24]: 38.1%
inhibition at 20 µM [25]: 39.7%
inhibition at 20 µM [26]: -12.1%
inhibition at 20 µM [27]: 13.7%
inhibition at 20 µM [28]: 3.4%
inhibition at 20 µM [29]: 7.2%
inhibition at 20 µM [30]: 20.1%
inhibition at 20 µM [31]: 5.4%
inhibition at 20 µM [32]: -1%
inhibition at 20 µM [33]: 18.1%
inhibition at 20 µM [34]: 14.3%
inhibition at 20 µM [35]: 2.4%
inhibition at 20 µM [36]: 0.5%
inhibition at 20 µM [37]: -4.4%
inhibition at 20 µM [38]: 17.7%
SMILES: CC(=O)N[C@@H](CCCC#C/C=C/Cl)CCCCCCC(Cl)Cl [Compound 4, taveuniamide F]
